Source: PubChem BioAssay AID248 (DTP/NCI, 2004)
Where “and” joins values, the source holds several entries; their conditions need not be identical. Equal values may be shown once. Inconclusive results and toxic doses are left out.

Test system: L1210 leukemia ip in BDF1 mice, survival T/C
Assay: NCI In Vivo Anticancer Drug Screen. Data for tumor model L1210 Leukemia (intraperitoneal) in B6D2F1 (BDF1) mice
Conditions: endpoint: mean survival time, higher = longer survival
Outline: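 Tumor cells were implanted, animals were treated, and survival was followed. The result divides the treated measurement by the vehicle-control measurement.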

[1] = dose: 25.0 mg/kg/injection, schedule: Q04DX003 (ip), vehicle: Klucel (hydroxypropylcellulose) (HPC)
[2] = dose: 100.0 mg/kg/injection, schedule: Q04DX003 (ip), vehicle: saline with Tween-80
[3] = dose: 100.0 mg/kg/injection, schedule: Q01DX009 (ip), vehicle: saline with Tween-80
[4] = dose: 200.0 mg/kg/injection, schedule: Q04DX003 (ip), vehicle: saline with Tween-80
[5] = dose: 400.0 mg/kg/injection, schedule: Q01DX009 (ip), vehicle: saline with Tween-80
[6] = dose: 400.0 mg/kg/injection, schedule: Q04DX003 (ip), vehicle: saline with Tween-80
[7] = dose: 100.0 mg/kg/injection, schedule: Q01DX001 (ip), vehicle: saline
[8] = dose: 200.0 mg/kg/injection, schedule: Q01DX001 (ip), vehicle: saline
[9] = dose: 100.0 mg/kg/injection, schedule: Q01DX009 (ip), vehicle: Klucel (hydroxypropylcellulose) (HPC)
[10] = dose: 200.0 mg/kg/injection, schedule: Q01DX009 (ip), vehicle: Klucel (hydroxypropylcellulose) (HPC)
[11] = dose: 100.0 mg/kg/injection, schedule: Q04DX003 (ip), vehicle: saline
[12] = dose: 200.0 mg/kg/injection, schedule: Q04DX003 (ip), vehicle: saline

SMILES: [Cl][Pt+2][Cl].[NH-]C1CCC1.[NH-]C1CCC1
- T/C (dose: 1.0 mg/kg/injection, schedule: Q01DX001 (ip), vehicle: saline with Tween-80): 95 % of control
- T/C (dose: 1.0 mg/kg/injection, schedule: Q01DX009 (ip), vehicle: saline with Tween-80): 108 % of control
- T/C (dose: 2.0 mg/kg/injection, schedule: Q01DX001 (ip), vehicle: saline with Tween-80): 98 % of control
- T/C (dose: 2.0 mg/kg/injection, schedule: Q01DX009 (ip), vehicle: saline with Tween-80): 115 % of control
- T/C (dose: 4.0 mg/kg/injection, schedule: Q01DX001 (ip), vehicle: saline with Tween-80): 109 % of control
- T/C (dose: 5.0 mg/kg/injection, schedule: Q04DX003 (ip), vehicle: saline): 110 % of control
- T/C (dose: 6.25 mg/kg/injection, schedule: Q04DX003 (ip), vehicle: Klucel (hydroxypropylcellulose) (HPC)): 103 % of control
- T/C (dose: 6.25 mg/kg/injection, schedule: Q04DX003 (ip), vehicle: saline with Tween-80): 116 % of control
- T/C (dose: 8.0 mg/kg/injection, schedule: Q01DX009 (ip), vehicle: saline with Tween-80): 157 % of control
- T/C (dose: 10.0 mg/kg/injection, schedule: Q04DX003 (ip), vehicle: saline): 123 % of control
- T/C (dose: 12.5 mg/kg/injection, schedule: Q04DX003 (ip), vehicle: Klucel (hydroxypropylcellulose) (HPC)): 106 % of control
- T/C (dose: 16.0 mg/kg/injection, schedule: Q01DX009 (ip), vehicle: saline with Tween-80): 214 % of control
- T/C [1]: 110 % of control
- T/C (dose: 32.0 mg/kg/injection, schedule: Q01DX001 (ip), vehicle: saline with Tween-80): 154 % of control
- T/C (dose: 32.0 mg/kg/injection, schedule: Q01DX009 (ip), vehicle: saline with Tween-80): 95 % of control
- T/C (dose: 40.0 mg/kg/injection, schedule: Q04DX003 (ip), vehicle: saline): 152 % of control
- T/C (dose: 50.0 mg/kg/injection, schedule: Q04DX003 (ip), vehicle: saline with Tween-80): 195 % of control
- T/C (dose: 64.0 mg/kg/injection, schedule: Q01DX001 (ip), vehicle: saline with Tween-80): 118 % of control
- T/C (dose: 80.0 mg/kg/injection, schedule: Q04DX003 (ip), vehicle: saline): 110 % of control
- T/C [2]: 154 % of control

SMILES: O=[N+]([O-])c1ccccc1NS(=O)(=O)c1ccccc1
- T/C [3]: 95 % of control
- T/C [2]: 93 % of control
- T/C (dose: 200.0 mg/kg/injection, schedule: Q01DX009 (ip), vehicle: saline with Tween-80): 96 % of control
- T/C [4]: 97 % of control
- T/C [5]: 98 % of control
- T/C [6]: 97 % of control

SMILES: Cc1cccc(C2CCCCC2OS(C)(=O)=O)c1 (configuration not stated)
- T/C (dose: 100.0 mg/kg/injection, schedule: Q01DX001 (ip), vehicle: carboxymethylcellulose (CMC)): 101 % of control
- T/C (dose: 200.0 mg/kg/injection, schedule: Q01DX001 (ip), vehicle: carboxymethylcellulose (CMC)): 108 % of control
- T/C (dose: 400.0 mg/kg/injection, schedule: Q01DX001 (ip), vehicle: carboxymethylcellulose (CMC)): 95 % of control

SMILES: CCN(C(=O)CCl)c1ccccc1C
- T/C (dose: 50.0 mg/kg/injection, schedule: Q01DX009 (ip), vehicle: saline with Tween-80): 91 % of control
- T/C [3]: 100 % of control

SMILES: CCN(CC)CCCC(C)n1nnc2cc(Cl)ccc21 (configuration not stated)
- T/C [7]: 97 % of control
- T/C [8]: 97 % of control

SMILES: CCOC(=O)C(CC(C)C)NC(=O)C(Cc1ccc(N(CCCl)CCCl)cc1)NC(C)=O (configuration not stated)
- T/C (dose: 1.0 mg/kg/injection, schedule: Q01DX009 (ip), vehicle: other): 108 % of control
- T/C (dose: 2.0 mg/kg/injection, schedule: Q01DX009 (ip), vehicle: other): 108 % of control
- T/C (dose: 4.0 mg/kg/injection, schedule: Q01DX009 (ip), vehicle: other): 120 % of control
- T/C (dose: 8.0 mg/kg/injection, schedule: Q01DX009 (ip), vehicle: other): 119 % of control
- T/C (dose: 16.0 mg/kg/injection, schedule: Q01DX009 (ip), vehicle: other): 109 % of control
- T/C (dose: 32.0 mg/kg/injection, schedule: Q01DX009 (ip), vehicle: other): 116 % of control
- T/C (dose: 62.5 mg/kg/injection, schedule: Q01DX001 (oral), vehicle: alcohol): 102 % of control
- T/C (dose: 66.0 mg/kg/injection, schedule: Q01DX001 (ip), vehicle: olive oil, sesame oil, peanut oil): 108 % of control
- T/C (dose: 100.0 mg/kg/injection, schedule: Q01DX001 (ip), vehicle: olive oil, sesame oil, peanut oil): 110 % of control
- T/C (dose: 125.0 mg/kg/injection, schedule: Q01DX001 (oral), vehicle: alcohol): 101 % of control
- T/C (dose: 250.0 mg/kg/injection, schedule: Q01DX001 (oral), vehicle: alcohol): 104 % of control
- T/C (dose: 250.0 mg/kg/injection, schedule: Q01DX001 (oral), vehicle: olive oil, sesame oil, peanut oil): 113 % of control
- T/C (dose: 500.0 mg/kg/injection, schedule: Q01DX001 (oral), vehicle: alcohol): 113 % of control

SMILES: CC1=CC(=Nc2ccc(N(CCCl)CCCl)cc2)C=CC1=O
- T/C (dose: 50.0 mg/kg/injection, schedule: Q01DX009 (ip), vehicle: Klucel (hydroxypropylcellulose) (HPC)): 110 % of control

SMILES: Cc1ccc(S(=O)(=O)NNc2c3ccccc3nc3ccc(Cl)cc23)cc1
- T/C (dose: 100.0 mg/kg/injection, schedule: Q04DX002 (ip), vehicle: saline with Tween-80): 101 % of control
- T/C (dose: 200.0 mg/kg/injection, schedule: Q04DX002 (ip), vehicle: saline with Tween-80): 97 % of control
- T/C (dose: 400.0 mg/kg/injection, schedule: Q04DX002 (ip), vehicle: saline with Tween-80): 97 % of control

SMILES: N=c1ncn(Cc2ccccc2)c2nc[nH]c12
- T/C [9]: 91 % of control
- T/C [10]: 101 % of control

SMILES: O=[N+]([O-])c1sc2ccccc2c1Br
- T/C (dose: 5.0 mg/kg/injection, schedule: Q04DX002 (ip), vehicle: Klucel (hydroxypropylcellulose) (HPC)): 101 % of control
- T/C (dose: 10.0 mg/kg/injection, schedule: Q04DX002 (ip), vehicle: Klucel (hydroxypropylcellulose) (HPC)): 97 % of control
- T/C (dose: 20.0 mg/kg/injection, schedule: Q04DX002 (ip), vehicle: Klucel (hydroxypropylcellulose) (HPC)): 97 % of control

SMILES: COCCCNc1ncnc2[nH]ncc12
- T/C (dose: 15.0 mg/kg/injection, schedule: Q01DX015 (ip), vehicle: saline): 95 % of control
- T/C (dose: 30.0 mg/kg/injection, schedule: Q01DX015 (ip), vehicle: saline): 101 % of control
- T/C (dose: 50.0 mg/kg/injection, schedule: Q04DX003 (ip), vehicle: saline): 96 % of control
- T/C (dose: 60.0 mg/kg/injection, schedule: Q01DX015 (ip), vehicle: saline): 97 % of control
- T/C [7]: 106 % of control
- T/C [11]: 98 % of control
- T/C (dose: 120.0 mg/kg/injection, schedule: Q01DX015 (ip), vehicle: saline): 110 % of control
- T/C [8]: 106 % of control
- T/C [12]: 100 % of control
- T/C (dose: 400.0 mg/kg/injection, schedule: Q01DX001 (ip), vehicle: saline): 116 % of control

SMILES: C/C(=C1/SC(=S)NC1=O)c1ccccc1
- T/C [7]: 102 % of control

SMILES: O=S(=O)(ON/N=C/c1cc2ccccc2c2ccccc12)c1ccccc1
- T/C (dose: 75.0 mg/kg/injection, schedule: Q01DX009 (ip), vehicle: Klucel (hydroxypropylcellulose) (HPC)): 96 % of control
- T/C (dose: 150.0 mg/kg/injection, schedule: Q01DX009 (ip), vehicle: Klucel (hydroxypropylcellulose) (HPC)): 96 % of control
- T/C (dose: 300.0 mg/kg/injection, schedule: Q01DX009 (ip), vehicle: Klucel (hydroxypropylcellulose) (HPC)): 98 % of control

SMILES: CC1CCCC(CN=Cc2ccccc2O)[N-]1.CC1CCCC(CN=Cc2ccccc2O)[N-]1.[Ni+2] (configuration not stated)
- T/C [2]: 98 % of control

SMILES: Nc1nc(N)c(N)c(=O)[nH]1
- T/C [1]: 103 % of control
- T/C (dose: 50.0 mg/kg/injection, schedule: Q04DX003 (ip), vehicle: Klucel (hydroxypropylcellulose) (HPC)): 100 % of control
- T/C (dose: 100.0 mg/kg/injection, schedule: Q01DX009 (ip), vehicle: saline): 109 % of control
- T/C (dose: 100.0 mg/kg/injection, schedule: Q04DX003 (ip), vehicle: Klucel (hydroxypropylcellulose) (HPC)): 94 % of control and 100 % of control
- T/C [11]: 107 % of control
- T/C (dose: 200.0 mg/kg/injection, schedule: Q01DX009 (ip), vehicle: saline): 101 % of control
- T/C [12]: 105 % of control
- T/C (dose: 400.0 mg/kg/injection, schedule: Q01DX009 (ip), vehicle: saline): 101 % of control
- T/C (dose: 400.0 mg/kg/injection, schedule: Q04DX003 (ip), vehicle: saline): 104 % of control

SMILES: CCc1ccc(NC(=O)CCC(=O)O)cc1
- T/C [9]: 102 % of control
- T/C [10]: 93 % of control
- T/C (dose: 400.0 mg/kg/injection, schedule: Q01DX009 (ip), vehicle: Klucel (hydroxypropylcellulose) (HPC)): 90 % of control

SMILES: CC(C)CC(C)OC(C[N+](=O)[O-])C(Cl)(Cl)Cl (configuration not stated)
- T/C [3]: 93 % of control
- T/C [2]: 106 % of control
- T/C [4]: 104 % of control
- T/C [5]: 93 % of control
- T/C [6]: 98 % of control
